Measured values published in US8058228B2, “Leptin peptide antagonists” (Boston Biomedical Research Institute, priority 2004, dated 2011).

Tested on: OB-R
Experiment: Competitive binding of 125I-human leptin to OB-R in rabbit endometrial cell lysates
Description: ^125I-human leptin served as ligand and LPA-2 and LPA-2Sc as competitors for the binding to OB-R in cellular extracts. All compounds were diluted in assay buffer (50 mM Tris and 100 mM NaCl, pH 8.5) to promote proper re-folding. Each assay tube contained 50 μl of cellular lysate (100 μg protein from 10^6 cells cultured for two days in basal medium), 50 μl of ^125I-human leptin (100.000 cpm), and 50 μl of LPAs (providing 10^−5-10^−14 M/tube). The tubes were incubated for 24 h at room temperature. Then, 250 μl of 1% BSA (w/v) and 500 μl of 20% polyethylene glycol (w/v) in PBS were added and the tubes were incubated for an additional 12-h period at 4° C. The tubes were centrifuged at 12.000 g for 15 min at 4° C. After careful aspiration of supernatant and complete drying of the tube-walls with filter paper, ^125I-human leptin binding in the precipitates was measured (Beckman 5000, counter). The binding of ^125I-leptin to OB-R in absence of LPAs was set at 100%, and LPA competitive binding values were expressed as percentages of total cpm. Affinity binding constants for LPAs were calculated from the competition curves.

## SRNVIQISNDLENLRDLLHVLAFSKS [LPA-2, 26 amino acid peptide, residues 70-95 of helix III of the human leptin molecule; leptin peptide antagonist]
Cellular lysates of rabbit endometrial cells
  competition with 125I-leptin for binding to OB-R: displaced
Competition with 125I-leptin, OB-R expressed by rabbit endometrial cells (rEEC and rESC), protein extracts
  Ki: ~0.06 nM
